Experimental data reported in the supplement of paper PMC10307832.

Key:
Assay in all cases: relative viability (nuclei count vs DMSO), 5 days (fraction); higher = more cells survive
RU-SKI 43 + Lapatinib = compound: CC[C@@H](C)CNCC(=O)N1CCC2=C([C@@H]1COC3=CC=CC(=C3)C)C=CS2 [RU-SKI 43] + CS(=O)(=O)CCNCc1ccc(-c2ccc3ncnc(Nc4ccc(OCc5cccc(F)c5)c(Cl)c4)c3c2)o1 [Lapatinib] (partner 2 µM)
Procedure, shortened: (§1)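 Lung cancer cell lines in 1536-well plates got either a single drug or a fixed anchor-drug dose together with five library-drug doses (not always all listed) in √10 steps, by pin tool, on the day after seeding. Nuclei were counted after 5 days, and relative viability is the treated-to-vehicle ratio of nuclei counts. Values are medians of duplicate plates.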

Irinotecan + Linsitinib = compound: CCc1c2c(nc3ccc(OC(=O)N4CCC(N5CCCCC5)CC4)cc13)-c1cc3c(c(=O)n1C2)COC(=O)[C@]3(O)CC [Irinotecan] + C[C@]1(O)C[C@@H](c2nc(-c3ccc4ccc(-c5ccccc5)nc4c3)c3c(N)nccn32)C1 [Linsitinib] (partner 1 µM)
Procedure, shortened: as §1

Irinotecan + Bortezomib = compound: CCc1c2c(nc3ccc(OC(=O)N4CCC(N5CCCCC5)CC4)cc13)-c1cc3c(c(=O)n1C2)COC(=O)[C@]3(O)CC [Irinotecan] + CC(C)C[C@H](NC(=O)[C@H](Cc1ccccc1)NC(=O)c1cnccn1)B(O)O [Bortezomib] (partner 0.002 µM)
Procedure, shortened: as §1

RU-SKI 43 + Navitoclax = compound: CC[C@@H](C)CNCC(=O)N1CCC2=C([C@@H]1COC3=CC=CC(=C3)C)C=CS2 [RU-SKI 43] + CC1(C)CCC(c2ccc(Cl)cc2)=C(CN2CCN(c3ccc(C(=O)NS(=O)(=O)c4ccc(N[C@H](CCN5CCOCC5)CSc5ccccc5)c(S(=O)(=O)C(F)(F)F)c4)cc3)CC2)C1 [Navitoclax] (partner 0.5 µM)
Procedure, shortened: as §1

Cell Line | relative viability (RU-SKI 43 + Lapatinib; first compound 0.1 µM) | relative viability (RU-SKI 43 + Lapatinib; first compound 0.3162 µM) | relative viability (RU-SKI 43 + Lapatinib; first compound 1 µM) | relative viability (RU-SKI 43 + Lapatinib; first compound 3.162 µM) | relative viability (RU-SKI 43 + Lapatinib; first compound 10 µM) | relative viability (Irinotecan + Linsitinib; first compound 0.6325 µM) | relative viability (Irinotecan + Linsitinib; first compound 2 µM) | relative viability (Irinotecan + Linsitinib; first compound 6.325 µM) | relative viability (Irinotecan + Linsitinib; first compound 20 µM) | relative viability (Irinotecan + Bortezomib; first compound 0.6325 µM) | relative viability (Irinotecan + Bortezomib; first compound 2 µM) | relative viability (Irinotecan + Bortezomib; first compound 6.325 µM) | relative viability (Irinotecan + Bortezomib; first compound 20 µM) | relative viability (RU-SKI 43 + Navitoclax; first compound 0.1 µM) | relative viability (RU-SKI 43 + Navitoclax; first compound 0.3162 µM) | relative viability (RU-SKI 43 + Navitoclax; first compound 1 µM) | relative viability (RU-SKI 43 + Navitoclax; first compound 3.162 µM) | relative viability (RU-SKI 43 + Navitoclax; first compound 10 µM)
NCI-H1666 | 0.58 | 0.721 | 0.695 | 0.615 | 0.52 | 0.71 | 0.414 | 0.403 | 0.384 | 0.608 | 0.419 | 0.414 | 0.214 | 0.9 | 1.08 | 0.888 | 0.852 | 0.848
HARA | 0.816 | 0.832 | 0.771 | 0.705 | 0.76 | 0.623 | 0.152 | 0.148 | 0.154 | 0.955 | 0.291 | 0.177 | 0.156 | 1.19 | 1.14 | 1.15 | 1.16 | 1.13
NCI-H661 | 0.465 | 0.525 | 0.511 | 0.434 | 0.421 | 0.583 | 0.476 | 0.334 | 0.256 | 0.701 | 0.609 | 0.354 | 0.285 |  |  |  |  | 
NCI-H2087 | 0.916 | 1.12 | 0.947 | 1.09 | 0.804 | 0.453 | 0.313 | 0.252 | 0.298 | 0.442 | 0.476 | 0.18 | 0.248 | 1.05 | 0.94 | 0.943 | 0.911 | 0.998
LC-2-ad | 1.05 | 0.969 | 1 | 0.976 | 0.93 | 0.48 | 0.237 | 0.179 | 0.184 | 0.688 | 0.286 | 0.167 | 0.128 | 0.388 | 0.487 | 0.63 | 0.422 | 0.329
NCI-H2405 | 1.01 | 0.964 | 1.03 | 1.04 | 0.956 |  | 0.763 | 0.294 | 0.18 | 0.573 | 0.931 | 0.662 | 0.299 | 0.797 | 0.867 | 0.627 | 0.74 | 0.711
HCC-44 | 1.12 | 1.02 | 1.15 | 1.04 | 0.995 | 0.677 | 0.305 | 0.168 | 0.249 | 0.74 | 0.752 | 0.229 | 0.351 | 0.863 | 1.13 | 0.968 | 0.986 | 0.902
NCI-H3122 | 1.06 | 1.03 | 1.03 | 1.09 | 0.979 | 0.902 | 0.293 | 0.24 | 0.22 | 1.05 | 0.824 | 0.252 | 0.259 | 1.03 | 1 | 0.995 | 0.97 | 0.98
LU99A | 0.839 | 1.14 | 0.968 | 0.956 | 0.925 | 0.233 | 0.247 | 0.224 | 0.238 | 0.42 | 0.326 | 0.18 | 0.249 | 0.779 | 0.793 | 0.87 | 0.885 | 0.835
